Measured values from article PMC8901748, “A novel prostaglandin E receptor 4 (EP4) small molecule antagonist induces articular cartilage regeneration” (Cell Discovery, 2022).
Like-named read-outs stand apart in the source and are kept apart here. Each block holds one compound with its values, some of them ahead of it.

Tests used:
[1] = tested on: Col2a1, Acan, Mmp3, Mmp9, Mmp13 expression in primary mouse chondrocytes; assay: qRT-PCR of anabolic and catabolic factors in primary chondrocytes; format: cell-based; details: primary murine chondrocytes, 1 ng/ml IL-1β, 24 hr
Method: (§1) ATDC5 cell line was purchased from Riken BioResource Center (Tsukuba, Japan) and grown in a 1:1 mixture of DMEM/F12 medium (Corning, 10-092-CVR) supplemented with 5% fetal bovine serum (Gibco, 10099, USA) and 1% penicillin-streptomycin solution (Life Technologies). Cells were maintained at 37 °C under 5% CO2. Primary chondrocytes were obtained from knee joint cartilage of newborn mice. Knee joints were dissected from the tibia plateau and femoral condyle articular cartilage of mouse pups and digested in 0.1% collagenase type II (Sigma) overnight at 37 °C and chondrocytes were harvested by centrifugation. Primary chondrocytes were cultured at a density of 5 × 10^3 cells per ml at 37 °C with 5% CO2. DMEM/F12 medium with 10% fetal bovine serum (FBS) and 1% penicillin–streptomycin was used to culture the primary chondrocytes. Chondrogenic differentiation were induced with chondrogenic medium, which contains insulin-transferrin-selenium (ITS) (Sigma, I3146), 10 ng/ml TGF-β3 (PEPROTECH, 100-36E, USA), 100 nM Dexamethasone (Sigma, D4902), 50 μg/ml VC (Sigma), 1 mM sodium pyruvate (Sigma) and 40 μg/ml proline (Sigma), and/or treatment with rmIL-1β (R&D, 401-ML/CF), TNFα (PEPROTECH, 300-01A-50) in DMEM/F12 for indicated days. Western blotting was performed according to standard protocols. Antibodies used were: rabbit anti-Mmp3 (1:1000, HuaBio), rabbit anti-Mmp13 (1:500, abcam, ab39012), rabbit anti-p-CREB (1:2000, Cell Signaling Technology, 87G3), rabbit anti-CREB (1:2000, Cell Signaling Technology, 48H2), mouse anti-GAPDH (1:5000; Sigma-Aldrich, G8795), rabbit anti-Col2 (Abcam, Ab34712), rabbit anti-STAT3 (1:2000; Abcam, ab68153), rabbit anti-p-STAT3 (Y705) (1:2000; Abcam, ab76315), rabbit anti -p65 (1:1000; CST, 3034), rabbit anti-p-p65 (1:1000; CST, 3033), and rabbit anti-IκBα (1:1000; Abways, CY5026).
Quantitative RT-PCR was performed to measure the relative mRNA levels. RNA samples were prepared from the chondrocytes using Trizol (Takara). cDNA was generated using the Prime Script RT reverse transcriptase kit (Yeasen, Drr036a). Primers used for amplification were shown in Supplementary Table S1, GAPDH was used as the house keeping gene.

[2] = tested on: primary articular chondrocytes; assay: Cell viability by CCK-8 assay; format: cell-based, mouse; details: 72 h, read-out: IC50 (cell viability, toxicity in chondrocytes)
Method: The cell viability was evaluated by CCK-8 assay (Dojindo Molecular Technologies). Primary chondrocytes were plated in the 96-well plates and treated with the EP4 antagonists or DMSO for 72 h. A total of 10 μl CCK-8 was added to each well, the cells were incubated in the presence of CCK-8 for 2–3 h. The optical density (OD) of each well at 450 nm was recorded on a Microplate Reader (SPECTRA MAX190). The absorbance values were normalized by subtracting blank values of […]. The cell viability (% of control) is calculated as the percentage of (ODtest − ODblank)/(ODcontrol − ODblank). The 50% inhibitory concentration (IC50) was calculated with GraphPad Prism software using the sigmoidal dose-response function.
as §1

[3] = Preliminary pharmacokinetic studies in CD1 mice; format: in vivo
Method: To evaluate the preclinical pharmacokinetic (PK) profiles of compound HL-43 and HL-66, 36 male CD1 mice were randomly divided into four groups for PK studies. […] Blood samples were collected at 0.083, 0.25, 0.5, 1, 2, 4, 8, 12, and 24 h after administration (n = 3). Then the whole blood was centrifuged at 5500 × g for 15 min at 4 °C. After suitable sample preparation, the concentration of HL-43 and HL-66 in plasma sample was determined by Agilent HPLC-MS/MS system (Agilent Technologies, USA). Pharmacokinetic parameters were calculated by WinNonlin software version 7.0 based on non-compartmental analysis (Pharsight Corporation, Mountain View, USA). Mean plasma concentration-time curves were plotted by GraphPad Prism 7.0 (GraphPad Software Inc., CA, USA).

[4] = tested on: zebrafish embryos; assay: Zebrafish embryo toxicity assay; design: Mortality / Deformities / Hatching: dose or concentration left out as unconfirmed; details: for Mortality: zebrafish embryos; for Deformities / Hatching: zebrafish
Method: A breeding stock of zebrafish at the age of 6–24 months is used for egg production. Fertilized eggs were collected and viable eggs were transferred to the 12-well plate at 26 °C. Fertilized eggs between the 4-cell and 128-cell stages be used for the toxicity test, with ten fertilized eggs per concentration and three replicates of each concentration, a total of 30 eggs for each concentration. […] DMSO was added as vehicle control. Hatching, morphological abnormalities and survival were assessed 24 and 72 h of post-fertilization (dpf) in zebrafish exposed to the chemicals.

[5] = tested on: Sox9 promoter-Luc in ATDC5 cells; assay: Sox9 promoter-Luc luciferase reporter assay; format: cell-based, mouse; details: 10 μM H89, 30 μM HL-43, 6 h
Method: (§2) Six firefly luciferase reporters were used in the Luciferase assay, including CRE-Luc (PathDetect CRE cis-Reporting System; Stratagene, La Jolla CA) driven by a basic promoter (TATA box) plus four repeats of CRE; Sox9 promoter-Luc contains human SOX9 proximal promoter region (−1034 bp to +67 bp)[45]; 4 × 48-p89-Luc, mouse Col2a1 minimal promoter. AP-1-Luc, Nf-κb-Luc, STAT-Luc were obtained from Stratagene. Chondrocytes were cultured in 24-well plates and 300 ng firefly luciferase reporter constructs were transiently transfected using transfection reagent TransExellent-DNA (Cenji Biotech Inc, China) following manufacturer’s instruction, and 15 ng of the Copia-Renilla luciferase reporter was co-transfected as a normalization control. Cells were treated with the indicated reagents for 48 h after transfection. The Dual-Luciferase measurements were performed in triplicate using the Luciferase assay kit (Promega) and a LUMIstar Omega luminometer (BMG Labtech, Mornington, Australia).

[6] = tested on: CRE-Luc in ATDC5 cells; assay: CRE-Luc luciferase reporter assay; format: cell-based, mouse; details: 10 μM H89, 30 μM HL-43, 2 ng/ml IL-1β, 6 h
Method: as §2, with “Cells were treated with the indicated reagents for 48 h after transfection.” left out

- AUC0-∞ ([3]; I.V. (5 mg/kg)): 1236.5 ng·h/mL
- C0 ([3]; I.V. (5 mg/kg)): 2557.7 ng/mL
- CL ([3]; I.V. (5 mg/kg)): 13 mL/min/kg
- Vd ([3]; I.V. (5 mg/kg)): 3.7 L/kg
- t1/2 ([3]; I.V. (5 mg/kg)): 3.2 h
- AUC0-∞ ([3]; P.O. (1 mg/kg)): 672.5 ng·h/mL
- CL ([3]; P.O. (1 mg/kg)): 123 mL/min/kg
- Cmax ([3]; P.O. (1 mg/kg)): 286.0 ng/mL
- Vd ([3]; P.O. (1 mg/kg)): 26.7 L/kg
- t1/2 ([3]; P.O. (1 mg/kg)): 2.5 h
- Bioavailability ([3]; oral): 10.9%
Structure (SMILES): Cc1ccc(-c2nnn(CCOc3ccc(F)cc3)c2C(=O)N[C@@H](C)c2ccc(C(=O)O)cc2)o1 [HL-66]
- Col2a1 expression (screen of EP4 antagonists) ([1]; EP4 antagonists (2 nM)): highest potency in inducing Col2a1 expression
- Mmp3 expression (screen of EP4 antagonists) ([1]; EP4 antagonists (30 μM)): reducing Mmp3 expression
- IC50 [2]: 330 µM

Structure (SMILES): Cc1ccc(-c2cc(C(F)(F)F)nn2-c2ccc(S(N)(=O)=O)cc2)cc1 [Celecoxib]
- IC50 ([2]; Mus musculus, Chondrocyte): 34.7 µM
- Mortality ([4]; 24hpf, 0.03, n=30): 0/30
- Mortality ([4]; 24hpf, 0.1, n=30): 7/30
- Mortality ([4]; 24hpf, 0.3, n=30): 12/30
- Mortality ([4]; 24hpf, 1, n=30): 18/30
- Deformities ([4]; 72hpf, 0.03, n=30): 4/30
- Hatching ([4]; 72hpf, 0.03, n=30): 12/30
- Deformities ([4]; 72hpf, 0.1, n=30): 3/30
- Hatching ([4]; 72hpf, 0.1, n=30): 8/30
- Deformities ([4]; 72hpf, 0.3, n=30): 7/30
- Hatching ([4]; 72hpf, 0.3, n=30): 13/30
- Deformities ([4]; 72hpf, 1, n=30): 2/30
- Hatching ([4]; 72hpf, 1, n=30): 3/30

Structure (SMILES): O=S(=O)(NCCNC/C=C/c1ccc(Br)cc1)c1cccc2cnccc12 [H89, reference compound]
- HL-43-induced Sox9 promoter luciferase reporter activity [5]: completely abolished
- HL-43-induced CRE luciferase reporter activity [6]: completely abolished
